According to patent US20090298934A1, “Diamidine Inhibitors of TDP1” (GOVERNMENT OF THE US, AS REPRESENTED BY THE SECRET, priority 2006, published 2009):

Legend:
Tdp1 [1] = biological target: T1, Tdp1 (Homo sapiens, UniProt Q9NUW8); assay: Tdp1 gel assay (32P-labeled 14Y / D14Y / 14Y-CC substrates, denaturing PAGE, densitometry); assay type: biochemical; conditions: for Ability to inhibit Tdp1 activity in the 14Y substrate (gel): 25 nM 14Y, 1 ng Tdp1, 20 min, pH 8.0, 25° C.; for Conversion half-time (t) of 14Y: 1.9 min in the absence of drug
T1 construct: His tag with thrombin site and linker (printed […] = X1; made in house; host or cells: E. coli BL21 (Novagen), plasmid pHN1910 in vector pET 15b
T1 sequence (Q9NUW8 whole entry): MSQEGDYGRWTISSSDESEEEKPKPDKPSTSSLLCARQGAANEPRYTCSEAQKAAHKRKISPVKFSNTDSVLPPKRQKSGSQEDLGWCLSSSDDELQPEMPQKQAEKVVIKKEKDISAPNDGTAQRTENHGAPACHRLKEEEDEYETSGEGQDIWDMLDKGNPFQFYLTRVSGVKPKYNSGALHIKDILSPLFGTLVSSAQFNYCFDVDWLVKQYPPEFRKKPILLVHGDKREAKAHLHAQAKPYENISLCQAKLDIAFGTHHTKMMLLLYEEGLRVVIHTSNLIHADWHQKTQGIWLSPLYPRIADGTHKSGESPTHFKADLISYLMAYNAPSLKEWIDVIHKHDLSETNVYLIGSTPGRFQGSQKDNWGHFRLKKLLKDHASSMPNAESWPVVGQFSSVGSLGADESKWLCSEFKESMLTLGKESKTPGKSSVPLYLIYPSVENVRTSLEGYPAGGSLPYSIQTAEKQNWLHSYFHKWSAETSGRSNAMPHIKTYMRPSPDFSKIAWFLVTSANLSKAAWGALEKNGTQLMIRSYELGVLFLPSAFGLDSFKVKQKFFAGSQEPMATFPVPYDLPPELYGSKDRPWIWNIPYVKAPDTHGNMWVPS
From the text: FIG. 7. […] A, Schematic representation of the Tdp1 biochemical assay. The partially duplex […] D14Y or single stranded 14Y was used as a substrate. ^32P-Radiolabeling (*) was at the 5′ terminus of the 14-mer strand. Tdp1 catalyzes the hydrolysis of the 3′-phosphotyrosine bond and converts 14Y and D14Y to an oligonucleotide with 3′-phosphate, 14P or D14P respectively. […] Arrows indicate the 3′-phosphate oligonucleotide product (14P) that runs quicker than the corresponding tyrosyl oligonucleotide substrate (14Y) in a denaturing PAGE. The duplex D14Y substrate and D14P product are detected on the gel by their corresponding labeled single strands (14Y and 14P), as they are no longer annealed under the denatured conditions.
FIG. 9. […] Aliquots were taken at the indicated times (min). Reaction products were analyzed by denaturing PAGE. B, densitometry analysis of the gel shown in A. Tdp1 activity measured as the percentage of DNA substrate 14Y converted to 14P (Left panel) or substrate 14Y remaining (Right panel) as a function of reaction time. […] A representative gel is shown. D, densitometry analysis of the gel shown in C. Tdp1 activity was calculated as the percentage of DNA substrate 14Y converted to 14P.
FIG. 10. […] A, Sequences of the oligonucletotide substrates 14Y and 14Y-CC, which differ in their 3′-terminal bases being a -TT or a -CC that is linked to the phosphotyrosine. B, Reactions (100 μl) containing either 25 nM 14Y or 14Y-CC and 5 ng of Tdp1 was incubated at pH 8.0 at 25° C. Aliquots were taken at the indicated times (min). Reaction products were analyzed by denaturing PAGE. C, densitometry analysis of the gel shown in B. Tdp1 activity measured as the percentage of DNA substrates 14Y or 14Y-CC converted to their corresponding products as a function of reaction time. […] A representative gel is shown. E, densitometry analysis of the gel shown in D. Tdp1 activity was calculated as the percentage of DNA substrates 14Y or 14Y-CC converted to their product.
FIG. 11. […] R; common chemical moiety. […] Samples were separated on a 20% Urea-PAGE gel and visualized.
Preparation of Tdp1 substrates: HPLC purified oligonucleotides N14Y (Plo et al., (2003) DNA Repair (Amst) 2(10):1087-1100) were labeled at their 5′-end with [γ-^32P]-ATP (Perkin-Elmer Life Science Co., Boston, Mass.) by incubation with 3′-phosphatase free T4 polynucleotide kinase (Roche applied Science, Indianapolis, Ind.) according to the manufacturer's protocols. Unincorporated nucleotides were removed by Sephadex G-25 spin-column chromatography (Mini Quick Spin Oligo Columns, Roche, Indianapolis, Ind.). For the production of the oligonucleotide duplexes D14Y, N14Y was mixed with the complementary oligonucleotide in equal molar ratios in annealing buffer (10 mM Tris-HCl pH 7.5, 100 mM NaCl, 10 mM MgCl2), heated to 96° C., and allowed to cool down slowly (over 2 h) to room temperature. Tdp1 assays: Unless indicated otherwise, Tdp1 assays are performed in 20 μl mixtures containing 50 mM Tris-HCl, pH 8.0, 80 mM KCl, 2 mM EDTA, 1 mM dithiothreitol (D)T, and 40 μg/ml bovine serum albumin (BSA). For initial screening of Tdp1 inhibitors, 25 nM of 5′-^32P-labeled substrate (D14Y) is reacted with 1 ng Tdp1 (≈0.7 nM) in the absence or presence of inhibitor for 20 min at 25° C. Reactions are stopped by addition of 60 μl of gel loading buffer (98% (v/v) formamide, 1% (w/v) xylene cyanol, 1% (w/v) bromophenol blue). Twelve μl of aliquots are resolved in 20% denaturing polyacrylamide (AccuGel, National Diagnostics, Atlanta, Ga.) (19:1) gel containing 7 M urea. After drying, gels are exposed overnight to PhosphorImager screens (Molecular Dynamics, Sunnyvale, Calif.). Screens are scanned, and images are obtained with the Molecular Dynamics software (Sunnyvale, Calif.). Densitometry analyses are performed using ImageQuant 5.2 software package (Amersham Biosciences, Piscataway, N.J.).

Tdp1 [2] = biological target: T1, Tdp1; assay: High-throughput electrochemiluminescent (ECL) Tdp1 assay; assay type: biochemical
From the text: High-throughput electrochemiluminescene assay developed to identify novel Tdp1 inhibitors. […] This leads to a loss of the chemiluminescence signal. Positive hits for potential Tdp1 inhibitors prevent this loss of signal. C, Signal response curve in the presence of increasing concentrations (nM) of Tdp1.
A, Graph representing the effect of 1981 compounds in the NCI-DTP diversity set on Tdp1 activity at 10 pM. Each dot indicates a signal value for a tested sample. The substrate chemiluminescence (Arbitrary units; A.U.) in the absence of Tdp1 averages at 16313±1084 (n=200; where “n” indicates the number of samples). In the presence of Tdp1 the loss of signal averages at 8784±559 (n=100). The effect of 1981 compounds screened is represented. Positive Tdp1 inhibitors prevent the loss of signal. […] Vanadate at 10 mM was used for comparison.

Row | SMILES | Ability to inhibit Tdp1 activity in the 14Y substrate (gel) (Tdp1 [1]) | IC50 (Tdp1 [1]; IC50 ds14Y, double-stranded 14Y substrate) [µM] | IC50 (Tdp1 [1]; IC50 ss14Y, single-stranded 14Y substrate) [µM] | inhibition at 30 µM (Tdp1 [1]; 30 μM compound, 0.1 ng of Tdp1, 14Y) [%] | Inhibition of Tdp1 activity after increasing Tdp1 (Tdp1 [1]; 30 μM compound, Tdp1 increased to 1 ng, 14Y) | Conversion half-time (t) of 14Y (Tdp1 [1]; 30 μM compound) [min] | Conversion half-time (t) of 14Y (Tdp1 [1]; 60 μM compound) [min] | Type of Tdp1 inhibition (Tdp1 [1]; dependence on reaction time and Tdp1 concentration) | ECL signal value (substrate chemiluminescence) (Tdp1 [2]; 10 μM compound, without Tdp1 16313±1084, with Tdp1 8784±559) [A.U.] | inhibition at 10 µM (Tdp1 [2]; at 10 μM) [%]
1 | CC(=O)NCC(=O)O.CC(=O)NCC(=O)O.N=C(N)c1ccc(N=NNc2ccc(C(=N)N)cc2)cc1 [Berenil, reference compound] | some activity, albeit at a high concentration (300 μM) | – | – | – | – | – | – | – | – | –
2 | CN(C)C1C(O)=C(C(=O)NCN2CCN(C(=N)NC(=N)N)CC2)C(=O)C2(O)C(O)=C3C(=O)c4c(O)cccc4C(C)(O)C3CC12 (centres unmarked) [Compound (a)] | – | 19 | 12 | – | – | – | – | – | – | –
3 | N=C(N)c1ccc(-c2ccc(-c3ccc(C(=N)N)cc3)o2)cc1 [Compound (b), 2,5-di-(4-phenylamidine)furan] | exhibits an inhibition of Tdp1 activity at 30 μM | – | – | 50 | almost completely reversed | 2.7 | 4.4 | reversible inhibition | 16910 | 100
